In one test the test system is anti-calmodulin serum. As to conditions: one antiserum; vertebrate calmodulin residues 137 to 143; cited from earlier work.
Test [1] has as its system intact calmodulin. Conditions: cited from earlier work.
Test [2] has as its system intact calmodulin. Nature of the test: Injection of immunogen into laboratory rabbits to elicit antisera against calmodulin. It is filed as in vivo. Conditions: merely injecting calmodulin into laboratory rabbits. An excerpt:
Using one of the rabbit antisera, we proceeded to test peptide segments encompasssing the entire calmodulin molecule to locate one or more immunoreactive sites in the protein. See Van Eldik, L. J. and Watterson D. M. "Reproducible Production of Antiserum against Vertebrate Calmodulin and Determination of the Immunoreactive Site" Journal of Biological Chemistry Volume 256 (9), pp. 4205-4210 (1981). Upon completion of these studies we proposed than an immunoreactive site of calmodulin is contained in an 18 residue region (residues 127-144) within the COOH-terminal domain of calmodulin.
However, although the minimal immunoreactive heptapeptide site of calmodulin met both of the above requirements, we were unable to produce anti-calmodulin sera when we injected laboratory rabbits with a synthetic heptapeptide corresponding to the immunoreactive site of the protein. […] Van Eldik, et al. "Elucidation of a Minimal Immunoreactive Site of Vertebrate Calmodulin" (cited above).

Turning to “asparagine-tyrosine-glutamic acid-glutamic acid-phenylalanine-valine-glutamine [synthetic heptapeptide]”, the “immunoreactivity with anti-calmodulin serum compared with the entire protein” value in the test with anti-calmodulin serum is on record as “as immunoreactive as the entire 148-residue protein”. Besides, the “reactivity of the elicited antibodies” value with intact calmodulin [1] (antibodies from injected rabbits tested against synthetic heptapeptide and intact calmodulin) was “reacted with the synthetic heptapeptide but not with intact calmodulin”. Further, the “antibody response in rabbits (immunogenicity)” value in the test on intact calmodulin [1] (laboratory rabbits injected with synthetic heptapeptide) was “elicited an antibody response”.
As for calmodulin, in the test on intact calmodulin [2], the “anti-calmodulin serum titer after injection” value is given as “inability to develop an anti-calmodulin serum of useful titer”.

These data come from patent US4716150A, “Synthetic peptides and use thereof in preparing calmodulin antisera” (Vanderbilt University, priority 1985, dated 1987).
